These results are taken from ChEMBL document CHEMBL3132776, “Synthesis of amphiphilic, chalcogen-based redox modulators with in vitro cytotoxic activity against cancer cells, macrophages and microbes” (Medchemcomm, 2014).

Series [1] relates to Erythrocyte. The experiment in a line: Induction of membrane permeabilization assessed as hemolysis in RBC (unknown origin) by spectrophotometry based hemoglobin release assay. Type of series: functional, cell-based.
The test system of series [2] is RAW264.7. The experiment in a line: Cytotoxicity against mouse RAW264.7 cells assessed as reduction in cell viability after 24 hrs by MTT assay. The class given is functional, cell-based. The note with it: RAW264.7, 24 h.
Series [3] deals with HCT-116. The experiment in a line: Cytotoxicity against human p53-positive HCT116 cells assessed as reduction in cell viability after 24 hrs by MTT assay. The class given is functional, cell-based. The note with it: HCT-116, 24 h.
In series [4] the test system is Erythrocyte. The experiment in a line: Induction of membrane permeabilization assessed as hemolysis in RBC (unknown origin) at 100 microM by spectrophotometry based hemoglobin release assay. The class given is functional.
A short description of series [5]: Critical micelle concentration of the compound by KRUSS tensiometry. The class given is physicochemical.
Series [6] relates to Steinernema feltiae. The experiment in a line: Nematicidal activity against Steinernema feltiae assessed as reduction in viability after 24 hrs. Type of series: functional. Particulars: read-out: LD50 (the source's name).
Series [7] concerns Escherichia coli. Description: Antibacterial activity against Escherichia coli M17 VKPM-B8208 by agar plate assay. The class given is functional, organism-based.
The subject of series [8] is HCT-116. The experiment in a line: Induction of superoxide anion radicals generation in human p53-positive HCT116 cells at 50 microM within 40 mins by DHE staining based fluorescence assay. Type of series: functional, cell-based.
The nature of series [9]: Cytotoxicity against human ARPE19 cells assessed as reduction in cell viability after 24 hrs by MTT assay. Type of series: cell-based. Particulars: ARPE-19, 24 h.
Series [10] has as its system HCT-116. The experiment in a line: Drug uptake in human p53-positive HCT116 cells after 48 hrs by energy-dispersive X-ray spectroscopy. Type of series: ADME, cell-based. The note with it: hct-116, 48 h.
The target of series [11] is Hemoglobin HbA (Homo sapiens) (UniProt P69905+P68871). The experiment in a line: Binding affinity to Hemoglobin (unknown origin) at 10 mM by circular dichroism spectroscopy.
Series [12] has as its system HCT-116. The experiment in a line: Induction of superoxide anion radicals generation in human p53-positive HCT116 cells by DHE staining based fluorescence assay. Type of series: functional, cell-based.
The subject of series [13] is HCT-116. Description: Reduction in mitochondrial membrane potential in human p53-positive HCT116 cells by JC-1 dye based fluorescence assay. The class given is functional, cell-based.

Each structure is given as a SMILES string. The source made the active and inactive calls. No cut-off for these calls is given here.

Chain of Hemoglobin HbA (Homo sapiens) (P68871 2-147 partner limits assumed): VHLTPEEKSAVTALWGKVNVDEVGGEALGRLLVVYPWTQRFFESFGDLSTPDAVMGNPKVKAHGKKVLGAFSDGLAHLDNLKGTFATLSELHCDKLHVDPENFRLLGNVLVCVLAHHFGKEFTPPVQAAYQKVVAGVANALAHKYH
Chain of Hemoglobin HbA (Homo sapiens) (P69905 2-142 limits assumed): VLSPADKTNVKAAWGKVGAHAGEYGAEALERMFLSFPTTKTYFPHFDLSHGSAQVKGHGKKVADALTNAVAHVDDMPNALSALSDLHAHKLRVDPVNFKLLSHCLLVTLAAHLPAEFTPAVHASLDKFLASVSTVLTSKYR

Take `O=S(=O)([O-])OCCCCCCCCCCCC[Se]c1ccccc1.[Na+]`: the Activity result is “Dose-dependent effect” in series [1] and 66.8% in series [4]. Further, the IC50 in series [2] and in [3] was > 100 µM in each case. Besides, in series [5], the CMC was 0.7 mM.

In the case of `O=S(=O)([O-])OCCCCCCCC[Te]c1ccccc1.[Na+]`, in [6], the LC50 is 78 µM. Moreover, the IC50 was determined as 550 µM in series [7], 50 µM in series [9], 3.95 µM in [2] and 5.99 µM in series [3]. In addition, the outcome in series [8] and in series [11] was Active. In addition, in series [10], the Drug uptake entry is recorded as “Active”. Further, the results for the Activity result in series [1] and in series [4] were “Dose-dependent effect” and 3.09%, respectively. This molecule also gave a CMC in [5] of 5 mM.

Consider `CCCCCCCCCCCCOS(=O)(=O)[O-].[Na+]` [SODIUM LAURYL SULFATE], for which, in [6], the LC50 was > 400 µM. The figures for the Activity result in series [1] and in [4] were “Dose-dependent effect” and 9.51%, respectively. Besides, the IC50 in series [2] and in [3] was > 100 µM each time. The molecule also gave a CMC in series [5] of 0.9 mM.

`O=S(=O)([O-])OCCCCCCCCCCCC[Te]c1ccccc1.[Na+]`: the IC50 turned out to be 50 µM in [9], 4.96 µM in series [2] and 19.8 µM in [3]. Also, the Activity result in series [1] is “Dose-dependent effect”; in series [4], 67.61%. Besides, the CMC in series [5] worked out at 0.3 mM.

`O=S(=O)([O-])OCCCCCCCCCCC[Te]c1ccccc1.[Na+]`: the IC50 was 50 µM in series [9], 7.84 µM in series [2] and 9.73 µM in [3]. Besides, the results for the Activity entry in series [1] and in series [4] were “Dose-dependent effect” and 53.35%, respectively. For the same molecule, the CMC in series [5] amounted to 0.5 mM.

With `O=S(=O)([O-])OCCCCCCCCCC[Te]c1ccccc1.[Na+]`, the IC50 is 50 µM in [9], 5.32 µM in series [2] and 7.47 µM in [3]. In addition, the figures for the Activity result in series [1] and in series [4] were “Dose-dependent effect” and 45.35%, respectively. In addition, the CMC in series [5] is 0.9 mM.

Consider `O=S(=O)([O-])OCCCCCCCCCC[Se]c1ccccc1.[Na+]`, for which the figures for the Activity result in series [1] and in series [4] were “Dose-dependent effect” and 7.94%, respectively. Besides, the half-maximal inhibitory concentration (IC50) in [2] and in series [3] was > 100 µM in each case. For the same molecule, the CMC in series [5] was determined as 1.2 mM.

For `O=S(=O)([O-])OCCCCCCCC[Se]c1ccccc1.[Na+]`, in [6], the LC50 was 30 µM. In addition, the result in [12] and in [13] was inactive. The result in [11] was Active. Moreover, the values for the Activity result in series [1] and in [4] were “Dose-dependent effect” and 1.24%, respectively. The IC50 in series [2] and in series [3] was > 100 µM in each case. Also, the CMC in series [5] is recorded as 2.6 mM.

Regarding `O=S(=O)([O-])OCCCCCCCCCCC[Se]c1ccccc1.[Na+]`, the Activity entry in series [1] is “Dose-dependent effect”; in series [4], 63.41%. The IC50 in [2] and in series [3] was > 100 µM throughout. Moreover, the CMC in [5] was determined as 1.1 mM.

With `O=S(=O)([O-])OCCCCCCCCC[Se]c1ccccc1.[Na+]`, the Activity result in series [1] is “Dose-dependent effect”; in series [4], 2.73%. The IC50 in series [2] and in series [3] was > 100 µM each time. In addition, in series [5], the CMC stood at 2.5 mM.

For the molecule `O=S(=O)([O-])OCCCCCCCCC[Te]c1ccccc1.[Na+]`, the IC50 came to 50 µM in series [9], 4.67 µM in series [2] and 4.99 µM in series [3]. For the same molecule, the Activity result in series [1] is “Dose-dependent effect”; in [4] it was 20.44%. Also, the CMC in series [5] turned out to be 4.8 mM.
